Patent US20240228542A1, “LYTIC DOMAIN FUSION CONSTRUCTS, CHECKPOINT INHIBITORS, AND METHODS OF MAKING AND USING SAME” (A28 Therapeutics Inc., priority 2020, published 2024)

Assays:
[1] = test system: AN3-CA; test: Cytotoxicity in AN3-CA endometrial cancer cells; assay type: cell-based; conditions: AN3-CA endometrial cancer cell line; read-out: IC50 in Human Cancer Cell Lines
Description: MDA-MB-435S.luc cells were grown in Leibovitz's L 15 medium, 10% fetal bovine serum, 0.01 mg/ml bovine insulin, 100 IU/ml penicillin, 100 microg/ml streptomycin. The cells were cultured in tight closed flasks. The incubations were conducted using 96 well plates at 10,000 cells per well. Cells were typically seeded into 96 well plates and media was replaced after 48 hours of incubation. Each assay was conducted at increasing concentrations of 0, 0.001, 0.01, 0.05, 0.1, 0.5, 1, 2, 5, 10 and 100 micromolar doses of lytic peptide-binding domain conjugate. Each lytic peptide-binding domain conjugate provided in lyophilized form and was freshly dissolved in saline and added to cells. The duration of incubation was typically 24 h, and cell viability assays were conducted using formazan conversion assays (MTT assay). Controls contained saline or 0.1% triton as reference for 0 and 100% cell death, respectively.
To ascertain the IC50 of various fusion constructs on different human cancer cell lines compared to cisplatinum, IC50 of fusion constructs were evaluated as in Table 3.

[2] = test system: MDA-MB-435S.luc xenograft; test: MDA-MB-435S.luc xenograft, βCG fusion constructs; assay type: in vivo, Nu/Nu mice; conditions: vs baseline and saline controls
Description: Female Nu/Nu mice were injected subcutaneously with a MDA-MB-435S.luc/Matrigel HC suspension (1×10^6 cells). In brief, treatment started on day 13 after tumor cell injection and continued on day 19 and 25. […] The doses for weekly injections were 5, 1 and 0.01 mg/kg body weight, given as a bolus single injection.
The effect of cytolytic peptide injections on the primary tumors is illustrated in FIG. 8. In brief, the FIGS. 8A-8C show tumor volume during the course of the study for each individual peptide. FIGS. 8D-8G show tumor characteristics at necropsy; tumor volume (D), tumor weight (E), live tumor cells (F), tumor conditions (G).
Treatment efficacy was calculated as difference between measurements at the beginning of treatment compared to the measurement at the end of study (FIG. 8H-8I). […] Viability of cells in the tumors was determined at the end of the study when tumors were measured for luciferase activity.

Sequence | IC50 [1] | tumor volume [2]
KFAKFAKKFAKFAKKFAKQHWSYGLRPG [Phor18-LHRH] | 3.8 ± 0.08 µM | –
KFAKFAKKFAKFAKKFAK [Phor18, reference compound] | – | ineffective in reducing the xenograft volume
